Measurements as given in PubChem BioAssay (NCI).
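Cells were grown in 96-well plates and exposed to each compound for 48 hours at five concentrations; endpoints were interpolated linearly between bracketing concentrations, or set to the highest concentration if not reached. GI50: concentration for 50% inhibition of growth. TGI is the concentration that stops growth completely.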

Columns and labels:
Assay in all cases: DTP human tumour cell line panel, 48 h
HL-60(TB) leukemia = test system: HL-60(TB) leukemia
HOP-62 NSCLC = test system: HOP-62 NSCLC
COLO 205 colon = test system: COLO 205 colon
RPMI-8226 leukemia = test system: RPMI-8226 leukemia
SR leukemia = test system: SR leukemia
MDA-MB-231 breast = test system: MDA-MB-231 breast
KM12 colon = test system: KM12 colon
OVCAR-8 ovarian = test system: OVCAR-8 ovarian
SF-539 CNS = test system: SF-539 CNS
NCI/ADR-RES ovarian = test system: NCI/ADR-RES ovarian
MALME-3M melanoma = test system: MALME-3M melanoma
SW-620 colon = test system: SW-620 colon
SNB-75 CNS = test system: SNB-75 CNS
DU-145 prostate = test system: DU-145 prostate
SK-MEL-28 melanoma = test system: SK-MEL-28 melanoma
UACC-257 melanoma = test system: UACC-257 melanoma
NCI-H522 lung = test system: NCI-H522 lung
TK-10 renal = test system: TK-10 renal
T-47D breast = test system: T-47D breast
K-562 leukemia = test system: K-562 leukemia
UO-31 renal = test system: UO-31 renal
HS 578T breast = test system: HS 578T breast
OVCAR-3 ovarian = test system: OVCAR-3 ovarian
HCT-15 colon = test system: HCT-15 colon
NCI-H226 lung = test system: NCI-H226 lung
LOX IMVI melanoma = test system: LOX IMVI melanoma
MOLT-4 leukemia = test system: MOLT-4 leukemia
OVCAR-5 ovarian = test system: OVCAR-5 ovarian
HCC-2998 colon = test system: HCC-2998 colon
PC-3 prostate = test system: PC-3 prostate
SK-OV-3 ovarian = test system: SK-OV-3 ovarian
A498 renal = test system: A498 renal
BT-549 breast = test system: BT-549 breast
MCF7 breast = test system: MCF7 breast
SK-MEL-5 melanoma = test system: SK-MEL-5 melanoma
IGROV1 ovarian = test system: IGROV1 ovarian
CCRF-CEM leukemia = test system: CCRF-CEM leukemia
MDA-MB-435 = test system: MDA-MB-435
RXF 393 renal = test system: RXF 393 renal
OVCAR-4 ovarian = test system: OVCAR-4 ovarian
SK-MEL-2 melanoma = test system: SK-MEL-2 melanoma
ACHN renal = test system: ACHN renal
EKVX NSCLC = test system: EKVX NSCLC
NCI-H23 lung = test system: NCI-H23 lung
A549 NSCLC = test system: A549 NSCLC
UACC-62 melanoma = test system: UACC-62 melanoma
U251 CNS = test system: U251 CNS
SN12C renal = test system: SN12C renal
HOP-92 NSCLC = test system: HOP-92 NSCLC
NCI-H460 lung = test system: NCI-H460 lung
SF-268 CNS = test system: SF-268 CNS
SF-295 CNS = test system: SF-295 CNS
CAKI-1 renal = test system: CAKI-1 renal
HCT-116 colon = test system: HCT-116 colon
SNB-19 CNS = test system: SNB-19 CNS
HT29 colon = test system: HT29 colon
786-0 renal = test system: 786-0 renal
M14 melanoma = test system: M14 melanoma

Work on `Nc1ccc(C#Cc2cncnc2Nc2ccc(OCc3cccc(F)c3)c(Cl)c2)cc1` yielded a GI50 (HL-60(TB) leukemia) of 5.68 µM, a TGI (HL-60(TB) leukemia) of over 25 µM and a GI50 (HOP-62 NSCLC) of over 17.3 µM. The TGI (HOP-62 NSCLC) was over 25 µM, the GI50 (COLO 205 colon) was over 25 µM and the TGI (COLO 205 colon) was over 25 µM. It also gave a GI50 (RPMI-8226 leukemia) of 15.3 µM, a TGI (RPMI-8226 leukemia) of over 25 µM and a GI50 (SR leukemia) of over 18 µM. For the same compound, the TGI (SR leukemia) was over 25 µM, the GI50 (MDA-MB-231 breast) was 8.08 µM and the TGI (MDA-MB-231 breast) was over 25 µM. For the same compound, the GI50 (KM12 colon) was 10.2 µM, the TGI (KM12 colon) was over 25 µM and the GI50 (OVCAR-8 ovarian) was 11.9 µM. It also gave a TGI (OVCAR-8 ovarian) of over 25 µM, a GI50 (SF-539 CNS) of over 15.8 µM and a TGI (SF-539 CNS) of over 25 µM. It also gave a GI50 (NCI/ADR-RES ovarian) of 12.7 µM, a TGI (NCI/ADR-RES ovarian) of over 25 µM and a GI50 (MALME-3M melanoma) of over 25 µM. For the same compound, the TGI (MALME-3M melanoma) was over 25 µM, the GI50 (SW-620 colon) was over 25 µM and the TGI (SW-620 colon) was over 25 µM. For the same compound, the GI50 (SNB-75 CNS) was over 12.1 µM, the TGI (SNB-75 CNS) was 24.5 µM and the GI50 (DU-145 prostate) was over 18 µM. For the same compound, the TGI (DU-145 prostate) was over 25 µM, the GI50 (SK-MEL-28 melanoma) was over 19 µM and the TGI (SK-MEL-28 melanoma) was over 25 µM. It also gave a GI50 (UACC-257 melanoma) of over 13.2 µM, a TGI (UACC-257 melanoma) of over 25 µM and a GI50 (NCI-H522 lung) of 4.94 µM. The TGI (NCI-H522 lung) was over 23.2 µM, the GI50 (TK-10 renal) was 3.58 µM and the TGI (TK-10 renal) was over 25 µM. For the same compound, the GI50 (T-47D breast) was 6.17 µM, the TGI (T-47D breast) was over 25 µM and the GI50 (K-562 leukemia) was 11.4 µM. The TGI (K-562 leukemia) was over 25 µM, the GI50 (UO-31 renal) was 3.2 µM and the TGI (UO-31 renal) was over 25 µM. For the same compound, the GI50 (HS 578T breast) was 6.07 µM, the TGI (HS 578T breast) was 24.2 µM and the GI50 (OVCAR-3 ovarian) was 8.87 µM. It also gave a TGI (OVCAR-3 ovarian) of over 25 µM, a GI50 (HCT-15 colon) of 7.32 µM and a TGI (HCT-15 colon) of over 25 µM. It also gave a GI50 (NCI-H226 lung) of 10.6 µM, a TGI (NCI-H226 lung) of over 25 µM and a GI50 (LOX IMVI melanoma) of 12.8 µM. For the same compound, the TGI (LOX IMVI melanoma) was over 25 µM, the GI50 (MOLT-4 leukemia) was 19.5 µM and the TGI (MOLT-4 leukemia) was over 25 µM. For the same compound, the GI50 (OVCAR-5 ovarian) was over 25 µM, the TGI (OVCAR-5 ovarian) was over 25 µM and the GI50 (HCC-2998 colon) was 11.1 µM. It also gave a TGI (HCC-2998 colon) of over 25 µM, a GI50 (PC-3 prostate) of 8.91 µM and a TGI (PC-3 prostate) of over 25 µM. The GI50 (SK-OV-3 ovarian) was 8.88 µM, the TGI (SK-OV-3 ovarian) was over 25 µM and the GI50 (A498 renal) was 1.7 µM. The TGI (A498 renal) was over 15.4 µM, the GI50 (BT-549 breast) was over 21 µM and the TGI (BT-549 breast) was over 25 µM. For the same compound, the GI50 (MCF7 breast) was 11.9 µM, the TGI (MCF7 breast) was over 25 µM and the GI50 (SK-MEL-5 melanoma) was over 15.8 µM. It also gave a TGI (SK-MEL-5 melanoma) of over 25 µM, a GI50 (IGROV1 ovarian) of 4.93 µM and a TGI (IGROV1 ovarian) of over 25 µM. For the same compound, the GI50 (CCRF-CEM leukemia) was 5.72 µM, the TGI (CCRF-CEM leukemia) was over 25 µM and the GI50 (MDA-MB-435) was over 17.6 µM. For the same compound, the TGI (MDA-MB-435) was over 25 µM, the GI50 (RXF 393 renal) was 5 µM and the TGI (RXF 393 renal) was over 25 µM. It also gave a GI50 (OVCAR-4 ovarian) of 12.3 µM, a TGI (OVCAR-4 ovarian) of over 25 µM and a GI50 (SK-MEL-2 melanoma) of over 16.4 µM. The TGI (SK-MEL-2 melanoma) was over 25 µM, the GI50 (ACHN renal) was 6.87 µM and the TGI (ACHN renal) was over 25 µM. It also gave a GI50 (EKVX NSCLC) of 3.07 µM, a TGI (EKVX NSCLC) of over 25 µM and a GI50 (NCI-H23 lung) of over 20.5 µM. For the same compound, the TGI (NCI-H23 lung) was over 25 µM, the GI50 (A549 NSCLC) was 8.58 µM and the TGI (A549 NSCLC) was over 25 µM. For the same compound, the GI50 (UACC-62 melanoma) was 19.4 µM, the TGI (UACC-62 melanoma) was over 25 µM and the GI50 (U251 CNS) was over 14 µM. The TGI (U251 CNS) was over 25 µM, the GI50 (SN12C renal) was over 15.6 µM and the TGI (SN12C renal) was over 25 µM. For the same compound, the GI50 (HOP-92 NSCLC) was 10.6 µM, the TGI (HOP-92 NSCLC) was over 25 µM and the GI50 (NCI-H460 lung) was 15.7 µM. It also gave a TGI (NCI-H460 lung) of over 25 µM, a GI50 (SF-268 CNS) of 16.5 µM and a TGI (SF-268 CNS) of over 25 µM. The GI50 (SF-295 CNS) was 10.6 µM, the TGI (SF-295 CNS) was over 25 µM and the GI50 (CAKI-1 renal) was 5.87 µM. The TGI (CAKI-1 renal) was over 25 µM, the GI50 (HCT-116 colon) was 10.6 µM and the TGI (HCT-116 colon) was over 25 µM. For the same compound, the GI50 (SNB-19 CNS) was over 14.3 µM, the TGI (SNB-19 CNS) was over 25 µM and the GI50 (HT29 colon) was 10.1 µM. For the same compound, the TGI (HT29 colon) was over 25 µM, the GI50 (786-0 renal) was 17.4 µM and the TGI (786-0 renal) was over 25 µM. It also gave a GI50 (M14 melanoma) of over 23.6 µM and a TGI (M14 melanoma) of over 25 µM.
